Measured values: US6506760B1, “Substituted hydrazinyl heteroaromatic inhibitors of thrombin” (Corvas International, Inc., priority 2000, dated 2003)
Like-named read-outs stand apart in the source and are kept apart here.

How the values were obtained:
Type in all cases: biochemical
[1] = target: T1, bovine pancreatic trypsin (Bos taurus, UniProt P00760); assay: Trypsin chromogenic assay, IC50; conditions: 30 min incubation
T1 construct: bovine pancreatic trypsin was obtained from Worthington Biochemical Corp; purchased Worthington Biochemical Corp. TRL3; host or cells: bovine pancreas
T1 sequence (P00760 24-246): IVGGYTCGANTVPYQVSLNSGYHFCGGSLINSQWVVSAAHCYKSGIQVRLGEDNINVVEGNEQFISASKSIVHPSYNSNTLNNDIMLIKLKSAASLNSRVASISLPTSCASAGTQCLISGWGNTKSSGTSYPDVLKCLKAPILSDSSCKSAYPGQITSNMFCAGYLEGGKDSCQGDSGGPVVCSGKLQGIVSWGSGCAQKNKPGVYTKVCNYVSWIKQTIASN
Procedure: (§1) The ability of compounds of the present invention to act as a selective inhibitor of thrombin activity was assessed by determining the concentration of test-compound which inhibited the activity of this enzyme by 50%, (IC50), and comparing this value to that determined for all or some of the following related serine proteases: recombinant tissue plasminogen activator (rt-PA), plasmin, activated protein C, chymotrypsin, factor Xa and trypsin.
(§2) The buffer used for all assays was HBSA (10 mM HEPES, pH 7.5, 150 mM sodium chloride, 0.1% bovine serum albumin).
(§3) The assay for IC50 determinations was conducted by combining in appropriate wells of a Corning microtiter plate, 50 microliters of HBSA, 50 microliters of the test compound at a specified concentration (covering a broad concentration range) diluted in HBSA (or HBSA alone for V0 (uninhibited velocity) measurement), and 50 microliters of the enzyme diluted in HBSA. Following a 30 minute incubation at ambient temperature, 50 microliters of the substrate at the concentrations specified below were added to the wells, yielding a final total volume of 200 microliters. The initial velocity of chromogenic substrate hydrolysis was measured by the change in absorbance at 405 nm using a Thermo Max® Kinetic Microplate Reader over a 5 minute period in which less than 5% of the added substrate was utilized. The concentration of added inhibitor which caused a 50% decrease in the initial rate of hydrolysis was defined as the IC50 value.
Trypsin catalytic activity was determined using the chromogenic substrate, S-2222 (benzoyl-L-isoleucine-L-glutamic acid-[gamma-methyl ester]-L-arginine-p-nitroanilide), which was obtained from DiaPharma Group. […] Purified (3×-crystallized; TRL3) bovine pancreatic trypsin was obtained from Worthington Biochemical Corp. The enzyme was reconstituted in deionized water and diluted into HBSA prior to assay in which the final concentration was 0.5 nM.

[2] = target: human plasmin (Homo sapiens, UniProt P00747); assay: Plasmin chromogenic assay, IC50; conditions: 30 min incubation
Procedure: as §1, §2, §3
Plasmin catalytic activity was determined using the chromogenic substrate, S-2366 [L-pyroglutamyl-L-prolyl-L-arginine-p-nitroaniline hydrochloride], which was obtained from DiaPharma group. The substrate was made up in deionized water followed by dilution in HBSA prior to the assay in which the final concentration was 300 micromolar (about 2.5-times Km). Purified human plasmin was obtained from Enzyme Research Laboratories, Inc. The enzyme was diluted into HBSA prior to assay in which the final concentration was 1.0 nM.

[3] = target: human α-thrombin (Homo sapiens, UniProt P00734); assay: Thrombin (fIIa) chromogenic assay, IC50
[4] = target: T2, Factor Xa (Homo sapiens, UniProt P00742); assay: Factor Xa chromogenic assay, IC50; conditions: 30 min incubation; read-out: fxa IC50 (30 min)
T2 construct: purchased Enzyme Research Laboratories, Inc. (South Bend, Ind.)
Procedure: as §1, §2, §3
Factor Xa catalytic activity was determined using the chromogenic substrate S-2765 (N-benzyloxycarbonyl-D-arginine-L-glycine-L-arginine-p-n itroaniline ), obtained from DiaPharma Group (Franklin, Ohio). All substrates were reconstituted in deionized water prior to use. […] Purified human Factor X was obtained from Enzyme Research Laboratories, Inc. (South Bend, Ind.) and Factor Xa (FXa) was activated and prepared from it as described [Bock, P. E., Craig, P. A., Olson, S. T., and Singh, P. Arch, Biochem. Biophys, 273:375-388 (1989)]. The enzyme was diluted into HBSA prior to assay in which the final concentration was 0.25 nM.

[5] = 0 min incubation of enzyme with inhibitor, read-out: fIIa IC50 (0 min)
[6] = 30 min incubation of enzyme with inhibitor, read-out: fIIa IC50 (30 min)

human plasmin, sequence (P00747 581-810 limits assumed): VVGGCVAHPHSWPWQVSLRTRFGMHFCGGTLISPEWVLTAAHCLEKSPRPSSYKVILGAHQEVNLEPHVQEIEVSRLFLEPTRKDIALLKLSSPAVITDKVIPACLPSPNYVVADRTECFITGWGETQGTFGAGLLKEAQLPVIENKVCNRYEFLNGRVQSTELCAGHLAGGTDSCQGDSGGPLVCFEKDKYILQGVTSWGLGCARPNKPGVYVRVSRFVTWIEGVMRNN
human plasmin, sequence (P00747 97-580 partner limits assumed): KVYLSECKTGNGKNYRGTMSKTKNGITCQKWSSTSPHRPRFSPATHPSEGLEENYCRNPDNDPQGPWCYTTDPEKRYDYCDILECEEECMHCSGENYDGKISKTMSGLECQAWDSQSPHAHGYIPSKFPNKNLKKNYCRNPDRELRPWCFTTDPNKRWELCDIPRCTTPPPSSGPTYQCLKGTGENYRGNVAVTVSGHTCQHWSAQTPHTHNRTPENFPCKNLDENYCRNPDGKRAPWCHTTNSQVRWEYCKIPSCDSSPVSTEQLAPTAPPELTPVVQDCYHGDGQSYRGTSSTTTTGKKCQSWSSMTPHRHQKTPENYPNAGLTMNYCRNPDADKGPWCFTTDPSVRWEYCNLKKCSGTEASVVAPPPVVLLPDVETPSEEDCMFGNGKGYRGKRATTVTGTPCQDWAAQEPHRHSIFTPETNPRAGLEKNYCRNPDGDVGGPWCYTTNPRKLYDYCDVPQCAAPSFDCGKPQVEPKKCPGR
T2 sequence (P00742 235-488 limits assumed): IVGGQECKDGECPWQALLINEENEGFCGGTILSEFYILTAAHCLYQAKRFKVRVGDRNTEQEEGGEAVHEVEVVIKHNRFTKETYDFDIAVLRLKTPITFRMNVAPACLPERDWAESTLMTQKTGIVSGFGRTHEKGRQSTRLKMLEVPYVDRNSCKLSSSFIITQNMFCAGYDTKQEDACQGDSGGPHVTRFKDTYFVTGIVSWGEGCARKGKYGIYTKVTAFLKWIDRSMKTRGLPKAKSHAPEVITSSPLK
T2 sequence (P00742 41-179 partner limits assumed): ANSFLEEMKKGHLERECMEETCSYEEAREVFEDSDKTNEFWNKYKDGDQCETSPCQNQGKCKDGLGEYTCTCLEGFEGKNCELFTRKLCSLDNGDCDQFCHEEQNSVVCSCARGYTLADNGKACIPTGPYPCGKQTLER

Compound | IC50 [1] [µM] | IC50 [2] [µM] | IC50 [3, 5] [µM] | IC50 [3, 6] [µM] | IC50 [4] [µM]
C=CCOC(=O)NNc1ncc(C)n(CC(=O)NCc2ccc(N)nc2C)c1=O [Example 25, 3-(2-Allyloxycarbonylhydrazino)-1-[5-(2-amino-6-methylpyridyl)methylcarboxamidomethyl]-6-methylpyrazinone, Hydrotrifluoroacetate] | ≥ 100 | ≥ 100 | ≤ 0.1 | ≤ 0.1 | ≥ 100
1-[5-(2-Amino-6-methylpyridyl)methylcarboxamidomethyl]-3-[2-(4-chlorobenzenesulfonyl)hydrazino]-6-methylpyrazinone, Hydrotrifluoroacetate [Example 55] | ≥ 100 | ≥ 100 | ≤ 0.1 | ≤ 0.1 | ≥ 100
